In data set [1] the test system is Msmeg. In words: Metabolic labeling of Msmeg with TMM reporters 1-6 (CuAAC, SPAAC, tetrazine ligation or one-step). The note with it: 4 h; for concentration of labeling saturation: Msmeg and Cglut, range up to 250 μM, flow cytometry (FIG. 62).
For the next data set, the system named is Ag85. In words: Effect of ebselen on AlkTMM labeling in Msmeg (Ag85 dependency). The note with it: ebselen 50 μg/mL 8 h; for decrease of labeling upon treatment of Msmeg with ebselen: then reporter 4 h (O-AlkTMM 50 μM; N-AlkTMM 100 μM). It is filed as cell-based, Mycobacterium smegmatis. How it is done: Effect of ebselen on AlkTMM labeling in Msmeg. Msmeg was cultured in 7H9 liquid medium in 96-well plates in the presence of ebselen (50 μg/mL) for 8 hours, after which the chemical reporter (O-AlkTMM, 50 μM; N-AlkTMM, 100 μM; 6-TreAz, 25 μM) was added and the cells were incubated for another 4 hours. Cells were subjected to CuAAC and analyzed by flow cytometry as described above.

Data set [2] relates to Msmeg PG-AGM and extractable lipids fractions. In words: Cellular fractionation and fluorescence analysis of labeled Msmeg. It is filed as cell-based, Mycobacterium smegmatis. The note with it: for distribution of fluorescence between PG-AGM and extractable lipids fractions: Msmeg 4 h, O-AlkTMM 50 μM, N-AlkTMM 250 μm, 6-TreAz 25 μM, CHCl3/CH3OH extraction. Here is the method:
Cellular fractionation and analysis of labeled Msmeg. 10 mL Msmeg cultures were grown in 7H9 liquid medium in the presence of O-AlkTMM (50 μM), N-AlkTMM (250 μm) or left untreated in 15 mL conical tubes. A higher concentration of N-AlkTMM was used to maximize labeling efficiency. In parallel, cultures were grown in the presence of 6-TreAz (25 μM) or left […] untreated. Cells were incubated with shaking for 4 h at 37° C. until reaching late-log phase, then pelleted by centrifugation and washed with PBSB three times as described above. For O- and N-AlkTMM-labeled cells and their untreated control, the above-described click chemistry procedure was carried out with Az488 at a reaction volume of 500 μL. For 6-TreAz-labeled cells and their untreated control, the above-described click chemistry procedure was carried out with Alk488 at a reaction volume of 500 μL. After the click reactions, cells were pelleted by centrifugation and washed with PBSB three times as described above. Aliquots were removed and resuspended in PBS 1× for measurement of OD600 (for normalization of fluorescence values) and analysis by flow cytometry as shown in FIG. 13. The remainder of the cells were resuspended in 1 mL HPLC grade CH3OH and transferred to a glass screw-cap culture tube containing 2 mL CHCl3 and equipped with a stir bar. The CHCl3/CH3OH (2:1) cell suspension was stirred overnight to accomplish separation of the soluble extractable lipids from the insoluble PG-AGM material. The insoluble material was pelleted by centrifugation (3,600 rpm, 10 minutes, room temperature) and washed two times with CHCl3/CH3OH (2:1). The CHCl3/CH3OH (2:1) supernatants containing soluble extractable lipids were combined in a 20 mL glass scintillation vial and dried by rotary evaporation. Both fractions were subjected to TLC analysis as described in FIG. 12 to confirm separation of the extractable lipids from the PG-AGM material. Both fractions were then resuspended in 1 mL 5% aqueous tetrabutylammonium hydroxide (TBAH) in glass screw-cap culture tubes, sealed and then stirred overnight at 100° C. to saponify and solubilize the samples. Next, the samples were cooled to room temperature and 200 μL aliquots were transferred to a black flat-bottom 96-well plate.

Data set [3] deals with M. smegmatis mc2155 (Msmeg). Briefly: Metabolic labeling of Msmeg with AlkTMM probes, CuAAC with Az488, flow cytometry / microscopy. It is filed as cell-based, Mycobacterium smegmatis. Also noted: concentration at which labeling was saturable: unit not given here. The note with it: for labeling after only a few seconds of culture time / labeling features in time-course fluorescence microscopy: Msmeg; for change in labeling between log- and stationary-phase Msmeg: growth phase dependence; for labeling of Msmeg: species specificity, flow cytometry and microscopy.

In data set [4] the test system is Msmeg. In words: Growth of Msmeg during treatment with probes. The data set is classed as cell-based, Mycobacterium smegmatis. The note with it: up to 250 μM. How it is done:
Plates were incubated at 37° C. […] Tubes were incubated at 37° C.

Data set [5] has as its system Msmeg. Briefly: Competition of AlkTMM labeling in Msmeg with unlabeled probes. It is filed as cell-based, Mycobacterium smegmatis. The note with it: competitor 250, 1000, 5000 μM, 4 h; O-AlkTMM 50 μM with O—C7TMM, N-AlkTMM 100 μM with N—C7TMM. How it is done:
Competition of AlkTMM labeling in Msmeg. For O-AlkTMM competition experiments, Msmeg was cultured in 7H9 liquid medium in 96-well plates in the presence of O-AlkTMM (50 μM) and its unlabeled version, O—C7TMM, at concentrations of 250, 1000, and 5000 μM (or without competitor) for 4 h. For N-AlkTMM competition experiments, Msmeg was cultured in 7H9 liquid medium in the presence of N-AlkTMM (100 μM) and its unlabeled version, […], at concentrations of 250, 1000, and 5000 μM (or without competitor) for 4 h. Cells were subjected to CuAAC and analyzed by flow cytometry as described above.

For a further data set, the system named is C. glutamicum. In words: AlkTMM labeling specificity, C. glutamicum. The note with it: species specificity, flow cytometry and microscopy. The data set is classed as cell-based, Corynebacterium glutamicum.
Another data set deals with Escherichia coli. In words: AlkTMM labeling specificity, E. coli. The data set is classed as cell-based. The note with it: species specificity, flow cytometry and microscopy.
In data set [6] the test system is SugABC-LpqY trehalose transporter. In words: Labeling in Msmeg wild type versus Msmeg ΔsugC. The data set is classed as cell-based, Mycobacterium smegmatis. The note with it: Msmeg wild type vs ΔsugC.
In another data set the test system is Bacillus subtilis. In words: AlkTMM labeling specificity, B. subtilis. It is filed as cell-based. The following applies: species specificity, flow cytometry and microscopy.
A short description of data set [7]: Water solubility of reporters.
A further data set deals with Cglut. Briefly: Metabolic labeling of Cglut with TMM reporters 4-6. The note with it: flow cytometry.

On to “6-O-(10-undecynoyl)-α,α-D-trehalose [O-AlkTMM-C11]”, for which the “dependence of labeling on acyl chain length” value with Msmeg [1] (Msmeg, 50 μM reporter, azido-488 CuAAC, flow cytometry) is “small increase”.

Turning to `[N-]=[N+]=NC[C@H]1O[C@H](O[C@H]2O[C@H](CO)[C@@H](O)[C@H](O)[C@H]2O)[C@H](O)[C@@H](O)[C@@H]1O` [6-TreAz, reference compound], the “effect of ebselen treatment on Msmeg labeling” value in the data set on Ag85 (then 6-TreAz 25 μM 4 h) is listed as “did not reduce”. Besides, the “distribution of fluorescence between PG-AGM and extractable lipids fractions” value in [2] is “signal exclusively in the extractable lipids fraction”.

For the molecule `C#CCCCCC(=O)NCC1O[C@H](O[C@H]2OC(CO)[C@@H](O)C(O)[C@H]2O)C(O)[C@@H](O)[C@@H]1O` (stereo partly drawn) [N-AlkTMM, N-(6-heptynoyl)-6-amino-6-deoxy-α,α-D-trehalose], in data set [3], the “labeling after only a few seconds of culture time” value is given as “significant labeling could be detected”; the “labeling features in time-course fluorescence microscopy” value was “intensely fluorescent septa in dividing cells, highly polar labeling for short pulses, and diffuse surface labeling for longer pulses”; the “change in labeling between log- and stationary-phase Msmeg” value was “significant decrease”; the “labeling of Msmeg” value is reported as “strong labeling of the cell surface”. In addition, the “S/N reached under the conditions tested” value in [3] (Msmeg 14 h, 1-250 μm probe, Az488 CuAAC, flow cytometry) is greater than 150. Further, in data set [3] (Msmeg 14 h, flow cytometry), the “signal lower than O-AlkTMM at the same concentrations” value is listed as “approximately 10 fold”. For the same molecule, in the data set with Msmeg [4], the “growth impairment of Msmeg” value is listed as “no growth impairment”. In addition, the “competition of labeling signal by unlabeled version of the probe” value in the data set with Msmeg [5] is “Dose-dependent competition of signal”. Further, in the data set with C. glutamicum, the “labeling of C. glutamicum” value was “strong labeling of the cell surface”. In the data set on Ag85, the “decrease of labeling upon treatment of Msmeg with ebselen” value is roughly 85%. The “labeling of E. coli” value in the data set on Escherichia coli is listed as “no labeling above background”. Also, in [6], the “dependence of incorporation on trehalose transporter SugABC-LpqY” value is “not dependent on the trehalose transporter SugABC-LpqY”. Also, the “distribution of fluorescence between PG-AGM and extractable lipids fractions” value in [2] is listed as “signal only in the extractable lipids fraction”. Also, the “labeling of B. subtilis” value in the data set with Bacillus subtilis is “no labeling above background”.

Consider `C#CCCCCC(=O)OCC1O[C@H](O[C@H]2OC(CO)[C@@H](O)C(O)[C@H]2O)C(O)[C@@H](O)[C@@H]1O` (stereo partly drawn) [O-AlkTMM, 6-O-(6-heptynoyl)-α,α-D-trehalose], for which, in [3], the “labeling after only a few seconds of culture time” value is given as “significant labeling could be detected”; the “labeling features in time-course fluorescence microscopy” value is “intensely fluorescent septa in dividing cells, highly polar labeling for short pulses, and diffuse surface labeling for longer pulses”; the “change in labeling between log- and stationary-phase Msmeg” value is “significant decrease”; the “labeling of Msmeg” value is given as “strong labeling of the cell surface”. The “concentration at which labeling was saturable” value in [3] (Msmeg 14 h, Az488 CuAAC, flow cytometry) amounted to 50. In data set [3] (Msmeg cultured 14 h, Az488 CuAAC, flow cytometry), the “signal-to-noise ratio (S/N) of labeling” value is reported as greater than 20. The “growth impairment of Msmeg” value with Msmeg [4] is recorded as “no growth impairment”. The “competition of labeling signal by unlabeled version of the probe” value with Msmeg [5] was “Dose-dependent competition of signal”. In addition, the “labeling of C. glutamicum” value in the data set with C. glutamicum is given as “strong labeling of the cell surface”. Moreover, the “decrease of labeling upon treatment of Msmeg with ebselen” value in the data set with Ag85 was “approximately 70%”. The “labeling of E. coli” value in the data set on Escherichia coli is listed as “no labeling above background”. In data set [7], the water solubility result is listed as “conveniently water-soluble”. For the same molecule, the “dependence of incorporation on trehalose transporter SugABC-LpqY” value in [6] is given as “not dependent on the trehalose transporter SugABC-LpqY”. Moreover, the “distribution of fluorescence between PG-AGM and extractable lipids fractions” value in data set [2] is reported as “nearly all of the fluorescence from O-AlkTMM treated Msmeg was present in the PG-AGM fraction”. For the same molecule, the “fraction of probe reacting with TMM to form alkyne-labeled TDM” value in [2] (estimated from extractable lipids fluorescence, FIG. 7) was no more than 10%. The “labeling of B. subtilis” value in the data set on Bacillus subtilis is “no labeling above background”.

With `C#CCCC(=O)OCC1O[C@H](O[C@H]2OC(CO)[C@@H](O)C(O)C2O)C(O)C(O)[C@@H]1O` (stereo partly drawn) [O-AlkTMM-C5, 6-O-(4-pentynoyl)-α,α-D-trehalose], the water solubility entry in data set [7] is on record as “conveniently water-soluble”.

For `[N-]=[N+]=NCCCCCCCCCC(=O)OCC1O[C@H](O[C@H]2OC(CO)[C@@H](O)C(O)C2O)C(O)C(O)[C@@H]1O` (stereo partly drawn) [O-AzTMM-C10, 6-O-(10-azidodecanoyl)-α,α-D-trehalose], the “concentration of labeling saturation” value in the data set with Msmeg [1] is on record as “approximately 25 μM”.

As to `O=C(CCCCCCCCCNC(=S)Nc1ccc2c(c1)C(=O)OC21c2ccc(O)cc2Oc2cc(O)ccc21)OC[C@H]1O[C@H](O[C@H]2O[C@H](CO)[C@@H](O)[C@H](O)[C@H]2O)[C@H](O)[C@@H](O)[C@@H]1O` [O-FITC-TMM, 6-O-(10-[(fluorescein-5-yl)thioureido]decanoyl)-α,α-D-trehalose], the “incorporation into Cglut relative to Msmeg” value with Cglut was “much more efficiently than in Msmeg”. The “concentration of labeling saturation” value in the data set with Msmeg [1] is no less than 100 µM.

`O=C(CCCCCCCCCNC(=O)OC1CC/C=C/CCC1)OC[C@H]1O[C@H](O[C@H]2O[C@H](CO)[C@@H](O)[C@H](O)[C@H]2O)[C@H](O)[C@@H](O)[C@@H]1O` (stereo partly drawn) [O-TCO-TMM, 6-O-(10-{N—[(E)-cylcooct-4-en1yloxy]carbonyl}aminodecanoyl)-α,α-D-trehalose]: the “incorporation into Cglut relative to Msmeg” value in the data set on Cglut is given as “much more efficiently than in Msmeg”. Also, the “concentration of labeling saturation” value in the data set with Msmeg [1] is on record as “approximately 25 μM”.
